These results are taken from patent publication US20110319392A1, “Thiazole Sulfonamide And Oxazole Sulfonamide Kinase Inhibitors” (priority 2009, published 2011).

As usually defined, the IC50 is the point on the concentration scale where inhibition reaches its midpoint.

In one assay the target is T1, EGFR (Homo sapiens, UniProt P00533).
T1 construct: made in house; host or cells: baculovirus expression system
Put plainly: EGFR substrate phosphorylation assay (HTRF). In kind it is biochemical. The method, boiled down:
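Baculovirus-expressed EGFR (0.8 nM) or ErbB2 (10 nM) in enzyme mix, preincubated 1 h at 20 °C with compound (0.00027–47.6 μM final), then 90 min at 20 °C with substrate mix of 20 μM ATP, 0.8 uM biotinylated Peptide C, MnCl2, MOPS pH 7.5. Phosphotyrosine by HTRF; pIC50 reported.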
For orientation: In TR-FRET formats the signal depends on donor and acceptor labels being close together.

Another assay deals with HN5 tumor cells. Nature of the assay: Cell growth inhibition assay (CellTiter-Glo), HN5. Conditions: Homo sapiens, 72 h; 3 days incubation. The assay is classed as cell-based, Human. In a few lines:
(§1)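 Readout was CellTiter-Glo luminescence (total ATP, surrogate for cell number) after 3-day exposure at 37° C, 5% CO2 to 1:3 serial compound dilutions in 0.2% final DMSO. Seeding was 500 cells/well; IC50 derived by 4-parameter fit relative to vehicle-treated wells.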
(In general: In ATP-based viability assays light output follows the ATP content of the culture.)

The next assay relates to A375P F11s tumor cells. Put plainly: Cell growth inhibition assay (CellTiter-Glo), A375P F11s. The assay is classed as cell-based, Human. As to conditions: Homo sapiens. In a few lines:
as §1

The subject of the next assay is HT-29 tumor cells. Nature of the assay: Cell growth inhibition assay (CellTiter-Glo), HT-29. The assay is classed as cell-based, Human. As to conditions: Homo sapiens. In a few lines:
as §1

Structures are written as SMILES. Where a name gives a salt, the structure may show the parent alone.

T1 sequence (P00533 25-1210): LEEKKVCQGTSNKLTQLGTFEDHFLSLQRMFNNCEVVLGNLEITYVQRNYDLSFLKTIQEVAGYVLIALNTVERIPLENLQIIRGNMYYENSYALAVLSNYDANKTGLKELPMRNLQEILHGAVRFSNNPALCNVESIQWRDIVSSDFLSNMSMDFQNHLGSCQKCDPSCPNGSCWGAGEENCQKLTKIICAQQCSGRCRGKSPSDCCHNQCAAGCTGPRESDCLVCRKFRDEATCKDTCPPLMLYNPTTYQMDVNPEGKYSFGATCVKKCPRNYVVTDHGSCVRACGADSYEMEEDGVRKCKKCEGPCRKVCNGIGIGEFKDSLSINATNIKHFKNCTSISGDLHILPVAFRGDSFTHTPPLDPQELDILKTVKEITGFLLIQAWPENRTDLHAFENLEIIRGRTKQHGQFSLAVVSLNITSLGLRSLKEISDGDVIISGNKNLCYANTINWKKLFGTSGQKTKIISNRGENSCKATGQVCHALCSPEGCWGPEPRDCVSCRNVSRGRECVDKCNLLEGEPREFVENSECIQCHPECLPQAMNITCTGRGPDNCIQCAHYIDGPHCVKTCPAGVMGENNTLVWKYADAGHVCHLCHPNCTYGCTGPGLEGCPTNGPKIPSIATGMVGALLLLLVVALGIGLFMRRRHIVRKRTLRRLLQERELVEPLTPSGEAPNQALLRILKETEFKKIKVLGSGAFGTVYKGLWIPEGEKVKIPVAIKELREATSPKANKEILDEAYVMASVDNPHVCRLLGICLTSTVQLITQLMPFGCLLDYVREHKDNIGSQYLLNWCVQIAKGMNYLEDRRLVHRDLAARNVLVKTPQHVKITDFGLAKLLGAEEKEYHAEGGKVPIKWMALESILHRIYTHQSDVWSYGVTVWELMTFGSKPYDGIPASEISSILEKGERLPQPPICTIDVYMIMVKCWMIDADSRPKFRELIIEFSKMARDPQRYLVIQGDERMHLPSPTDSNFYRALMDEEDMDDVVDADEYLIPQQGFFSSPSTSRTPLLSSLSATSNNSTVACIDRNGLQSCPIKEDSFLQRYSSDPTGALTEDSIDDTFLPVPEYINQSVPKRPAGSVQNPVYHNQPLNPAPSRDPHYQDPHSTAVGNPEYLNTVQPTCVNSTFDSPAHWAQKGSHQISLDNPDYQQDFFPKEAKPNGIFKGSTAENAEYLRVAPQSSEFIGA

In the case of `CC(C)c1nc(-c2cccc(NS(=O)(=O)c3c(F)cccc3F)c2F)c(-c2ccnc(Nc3ccc(N4CCN(CCF)CC4)c(F)c3)n2)s1` [Example 29, 2,6-Difluoro-N-{2-fluoro-3-[5-[2-({3-fluoro-4-[4-(2-fluoroethyl)-1-piperazinyl]phenyl}amino)-4-pyrimidinyl]-2-(1-methylethyl)-1,3-thiazol-4-yl]phenyl}benzenesulfonamide], the half-inhibitory concentration (IC50) at EGFR was more than 1000 nM; in the assay with HN5 tumor cells, 100 to 1000 nM; in the assay on A375P F11s tumor cells, less than 100 nM; in the assay on HT-29 tumor cells it was 100 to 1000 nM.

Turning to `CC(C)c1nc(-c2cccc(NS(=O)(=O)c3ccco3)c2)c(-c2ccnc(Nc3ccc(N4CCOCC4)nc3)n2)s1` [Example 53], the 50% inhibitory concentration (IC50) against EGFR was more than 1000 nM; with HN5 tumor cells, less than 100 nM; in the assay with A375P F11s tumor cells, less than 100 nM; with HT-29 tumor cells, less than 100 nM.

In the case of `CC(C)c1nc(-c2ccc(F)c(NS(=O)(=O)c3c(F)cccc3F)c2)c(-c2ccnc(Nc3cccc(CCS(N)(=O)=O)c3)n2)s1` [Example 113], the IC50 at EGFR was 100 to 1000 nM; in the assay with HN5 tumor cells, more than 1000 nM; in the assay on A375P F11s tumor cells, 100 to 1000 nM; in the assay with HT-29 tumor cells, more than 1000 nM.

On to `CCNc1nc(-c2ccc(F)c(NS(=O)(=O)c3c(F)cccc3F)c2)c(-c2ccnc(Nc3ccc(N4CCOCC4)nc3)n2)s1` [Example 166], for which the IC50 against EGFR, in the assay on HN5 tumor cells, in the assay with A375P F11s tumor cells and in the assay with HT-29 tumor cells was 100 to 1000 nM throughout.

As to `COc1ccc(Nc2nccc(-c3sc(C(C)C)nc3-c3cccc(NS(=O)(=O)c4c(F)cccc4F)c3)n2)cc1N(C)C` [Example 18, N-{3-[5-(2-{[3-(Dimethylamino)-4-(methyloxy)phenyl]amino}-4-pyrimidinyl)-2-(1-methylethyl)-1,3-thiazol-4-yl]phenyl}-2,6-difluorobenzenesulfonamide trifluoroacetate], the 50% inhibitory concentration (IC50) against EGFR was less than 100 nM; in the assay with HN5 tumor cells, 100 to 1000 nM; in the assay on A375P F11s tumor cells, less than 100 nM; in the assay on HT-29 tumor cells, less than 100 nM.

With `CCOc1ccc(Nc2nccc(-c3sc(N4CCCC4)nc3-c3cccc(NS(=O)(=O)c4c(F)cccc4F)c3)n2)cc1N1CCN(CCS(C)(=O)=O)CC1` [Example 109], the IC50 on EGFR was less than 100 nM; with HN5 tumor cells, more than 1000 nM; with A375P F11s tumor cells, less than 100 nM; with HT-29 tumor cells, 100 to 1000 nM.

With `COc1cc(N2CCN(CCS(C)(=O)=O)CC2)c(C)cc1Nc1nccc(-c2sc(C(C)(C)C)nc2-c2cccc(NS(=O)(=O)c3c(F)cccc3F)c2)n1` [Example 120], the 50% inhibitory concentration (IC50) against EGFR is more than 1000 nM; with HN5 tumor cells it was more than 1000 nM; with A375P F11s tumor cells, 100 to 1000 nM; in the assay on HT-29 tumor cells, 100 to 1000 nM.

Consider `CN(C)c1nc(-c2ccc(F)c(NS(=O)(=O)c3c(F)cccc3F)c2)c(-c2ccnc(Nc3ccc(N4CCN(S(C)(=O)=O)CC4)nc3)n2)s1` [Example 112], for which the IC50 against EGFR is 100 to 1000 nM; in the assay with HN5 tumor cells it was more than 1000 nM; with A375P F11s tumor cells, 100 to 1000 nM; in the assay on HT-29 tumor cells, 100 to 1000 nM.

Regarding `CC(C)c1nc(-c2cncc(NS(=O)(=O)c3c(F)cccc3F)c2)c(-c2ccnc(Nc3ccc(N4CCOCC4)nc3)n2)s1` [Example 47], the IC50 against EGFR was more than 1000 nM; in the assay with HN5 tumor cells, more than 1000 nM; in the assay on A375P F11s tumor cells, less than 100 nM; in the assay with HT-29 tumor cells, 100 to 1000 nM.

Regarding `CC(=O)N1CCN(c2ccc(Nc3nccc(-c4sc(C(C)C)nc4-c4cccc(NS(=O)(=O)c5cn(C)cn5)c4)n3)cn2)CC1` [Example 36], the half-inhibitory concentration (IC50) at EGFR is less than 100 nM; in the assay on HN5 tumor cells, more than 1000 nM; with A375P F11s tumor cells, 100 to 1000 nM; in the assay with HT-29 tumor cells it was more than 1000 nM.

As to `COc1cc(N2CCC(N3CCN(CCS(C)(=O)=O)CC3)CC2)ccc1Nc1nccc(-c2sc(C(C)C)nc2-c2cccc(NS(=O)(=O)c3c(F)cccc3F)c2)n1` [Example 20, 2,6-Difluoro-N-{3-[2-(1-methylethyl)-5-(2-{[2-(methyloxy)-4-(4-{4-[2-(methylsulfonyl)ethyl]-1-piperazinyl}-1-piperidinyl)phenyl]amino}-4-pyrimidinyl)-1,3-thiazol-4-yl]phenyl}benzenesulfonamide], the IC50 was less than 100 nM against EGFR, more than 1000 nM in the assay with HN5 tumor cells, 100 to 1000 nM in the assay on A375P F11s tumor cells and more than 1000 nM in the assay with HT-29 tumor cells.

As to `COc1ccc(S(=O)(=O)Nc2cccc(-c3nc(C(C)C)sc3-c3ccnc(Nc4ccc(N5CCOCC5)nc4)n3)c2)cn1` [Example 49], the IC50 is more than 1000 nM against EGFR, more than 1000 nM in the assay with HN5 tumor cells, less than 100 nM in the assay on A375P F11s tumor cells and less than 100 nM with HT-29 tumor cells.

For `CC(=O)N1CCN(c2ccc(Nc3nccc(-c4sc(C(C)C)nc4-c4cccc(NS(=O)(=O)c5ccccc5F)c4)n3)cn2)CC1` [Example 12, N-{3-[5-(2-{[6-(4-Acetyl-1-piperazinyl)-3-pyridinyl]amino}-4-pyrimidinyl)-2-(1-methylethyl)-1,3-thiazol-4-yl]phenyl}-2-fluorobenzenesulfonamide], the IC50 is less than 100 nM against EGFR, 100 to 1000 nM with HN5 tumor cells, less than 100 nM in the assay with A375P F11s tumor cells and less than 100 nM in the assay on HT-29 tumor cells.

Regarding `CC(C)c1nc(-c2cccc(NS(=O)(=O)c3c(F)cccc3F)c2)c(-c2ccnc(Nc3ccc(N4CCN(CCS(C)(=O)=O)CC4)c(F)c3)n2)s1` [Example 16, 2,6-Difluoro-N-{3-[5-{2-[(3-fluoro-4-{4-[2-(methylsulfonyl)ethyl]-1-piperazinyl}phenyl)amino]-4-pyrimidinyl}-2-(1-methylethyl)-1,3-thiazol-4-yl]ohenyl}benzenesulfonamide hydrochloride], the IC50 was 100 to 1000 nM against EGFR, 100 to 1000 nM in the assay with HN5 tumor cells, less than 100 nM with A375P F11s tumor cells and less than 100 nM in the assay on HT-29 tumor cells.

With `CC(C)c1nc(-c2cccc(NS(=O)(=O)c3c(F)cccc3F)c2F)c(-c2ccnc(Nc3ccc(N4CCOCC4)nc3)n2)s1` [Example 123], the IC50 on EGFR was more than 1000 nM; in the assay on HN5 tumor cells, 100 to 1000 nM; with A375P F11s tumor cells it was less than 100 nM; with HT-29 tumor cells it was less than 100 nM.

Take `CC(=O)N1CCN(c2ccc(Nc3nccc(-c4oc(C(C)C)nc4-c4cccc(NS(=O)(=O)c5c(F)cccc5F)c4)n3)cn2)CC1` [Example 56]: the half-maximal inhibitory concentration (IC50) against EGFR was more than 1000 nM; in the assay on HN5 tumor cells, more than 1000 nM; in the assay on A375P F11s tumor cells, 100 to 1000 nM; with HT-29 tumor cells, 100 to 1000 nM.

For `O=S(=O)(Nc1cccc(-c2nc(N3CCOCC3)sc2-c2ccnc(Nc3ccc(N4CCOCC4)nc3)n2)c1Cl)c1c(F)cccc1F` [Example 146], the 50% inhibitory concentration (IC50) at EGFR is more than 1000 nM; in the assay with HN5 tumor cells, less than 100 nM; in the assay on A375P F11s tumor cells, less than 100 nM; with HT-29 tumor cells it was less than 100 nM.

`CC(C)c1nc(-c2ccnc(NS(=O)(=O)c3c(F)cccc3F)c2)c(-c2ccnc(Nc3ccc(N4CCOCC4)nc3)n2)s1` [Example 32, 2,6-Difluoro-N-{4-[2-(1-methylethyl)-5-(2-{[6-(4-morpholinyl}-3-pyridinyl]amino}-4-pyrimidinyl)-1,3-thiazol-4-yl]-2-pyridinyl}benzenesulfonamide]: the IC50 is more than 1000 nM against EGFR, more than 1000 nM in the assay on HN5 tumor cells, less than 100 nM with A375P F11s tumor cells and more than 1000 nM in the assay on HT-29 tumor cells.
